According to patent US8796457B2, “Compound useful for the treatment of degenerative and inflammatory diseases” (Galapagos NV, priority 2009, dated 2014):
Where two headings read alike, the source gives them in different places.

How the values were obtained:
[1] = molecular target: JAK1 (Homo sapiens (Human), UniProt P23458); experiment: JAK1 Ki determination assay (polyGT, 33P filter plate); format: biochemical; settings: Lineweaver-Burk; polyGT substrate, 33P readout
Procedure: For the determination of Ki, different amounts of inhibitor were mixed with the enzyme and the enzymatic reaction was followed as a function of ATP concentration. The Ki was determined by means of double reciprocal plotting of Km vs compound concentration (Lineweaver-Burk plot). JAK1 (Invitrogen, PV4774) was used at a final concentration of 500 ng/ml. […] Measurement of incorporated phosphate into the substrate polyGT was done by loading the samples on a filter plate (using a harvester, Perkin Elmer) and subsequent washing. Incorporated ^33P in polyGT is measured in a Topcount scintillation counter after addition of scintillation liquid to the filter plates (Perkin Elmer).

[2] = molecular target: T1, JAK2 (Homo sapiens (Human), UniProt O60674); experiment: JAK2 Ki determination assay (polyGT, 33P filter plate); format: biochemical; settings: Lineweaver-Burk; polyGT substrate, 33P readout
Text: For the determination of Ki, different amounts of inhibitor were mixed with the enzyme and the enzymatic reaction was followed as a function of ATP concentration. […] 0.025 mU of JAK2 (Invitrogen, PV4210) was used in the assay.

[3] = molecular target: T1, JAK2; experiment: JAK2 Ki determination assay (Ulight-JAK-1 peptide); format: biochemical; settings: Lineweaver-Burk; Ulight-JAK-1 (Tyr1023) peptide, alternative protocol
Procedure: Alternatively, for the determination of Ki, different amounts of inhibitor were mixed with the enzyme and the enzymatic reaction was followed as a function of ATP concentration. […] 0.0125 mU of JAK2 (Invitrogen, PV4210) was used in the assay. The substrate was 50 nM Ulight-JAK-1 (Tyr1023) Peptide (Perkin Elmer, TRF0121). The reaction was performed in 25 mM HEPES pH 7.0, 0.01% Triton X-100, 2 mM DTT, 7.5 mM MgCl2 with varying concentrations of ATP and compound. Phosphorylated substrate was measured using an Eu-labeled anti-phosphotyrosine antibody PT66 (Perkin Elmer, AD0068). Readout was performed on the envision (Perkin Elmer) with excitation at 320 nm and emission followed at 615 nm and 665 nm.

[4] = system: JAK2 dependent pathway (GM-CSF induced IL-8) in human whole blood; experiment: Whole blood assay, GM-CSF stimulation, IL-8 ELISA; format: cell-based; settings: 6 blood donors, ± SEM, read-out: pIC50 for inhibition of GM-CSF induced increase of IL-8 (converted)
Procedure: For GM-CSF stimulation, increase in interleukin-8 (IL-8) levels in plasma was measured using an IL-8 ELISA assay. Granulocyte macrophage-colony stimulating factor (GM-CSF)—induced interleukin 8 (IL-8) expression is a JAK2-mediated event.
The increase in IL-8 levels in plasma was measured using an IL-8 ELISA assay.
10 μg GM-CSF was dissolved in 100 μL H2O to obtain a 100 μg/mL stock solution. The stock solution was stored at −20° C.
A 3-fold dilution series of the test compound was prepared in DMSO (highest concentration: 10 mM).
Human blood was collected in heparinized tubes. The blood was divided in aliquots of 245 μL. […] The GM-CSF stock solution was diluted 100-fold in RPMI medium to obtain a 1 μg/mL work solution. […] The samples were incubated at 37° C. for 2 h.
The samples were centrifuged for 15 min at 1,000 g, 4° C. 100 μL of the plasma was harvested and stored at −80° C. until further use.
The Human IL-8 Chemiluminescent Immunoassay kit from R&D Systems (Cat. n°: Q8000B) was used to determine IL-8 levels.
Wash buffer was prepared by diluting 10× wash buffer in H2O. Working glo reagent was prepared by adding 1 part Glo Reagent 1 to 2 parts Glo Reagent B 15 min to 4 h before use.
100 μL assay diluent RD1-86 was added to each well. After that, 50 μL of sample (plasma) was added. […] Luminescence was measured (0.5 s/well read time).

[5] = system: JAK2-dependent pathway (GM-CSF stimulated STAT5 phosphorylation, CD14+ cells) in human whole blood; experiment: Whole blood assay, GM-CSF stimulation, Phospho-STAT5 FACS; format: cell-based; settings: mean of 3 healthy volunteers, read-out: pIC50 in the inhibition of STAT5 phosphorylation (converted)
Procedure: A flow cytometry analysis was also performed to establish compound selectivity for JAK1 over JAK2, ex vivo using human whole blood.
The increase in phosphorylation of STAT5 by GM-CSF in monocytes was measured using an anti phospho-STAT5 antibody by FACS.
Remaining diluted Lyse/Fix buffer was discarded.
10 μg rhGM-CSF (AbCys S.A., Cat N°P300-03) was dissolved in 100 μl of PBS 0.1% BSA to obtain a 100 μg/ml stock solution. The stock solution was stored aliquoted at −80° C.
Control-treated samples received DMSO without any test compound.
Human blood was collected in heparinized tubes.
50,000 total events were counted and Phospho-STAT5 positive cells were measured after gating on CD14+ cells.

[6] = Caco2 permeability (bi-directional); format: in vitro ADME; settings: human, pH 7.4
Procedure: Bi-directional Caco-2 assays were performed as described below. Caco-2 cells were obtained from European Collection of Cell Cultures (ECACC, cat 86010202) and used after a 21 day cell culture in 24-well Transwell plates (Fisher TKT-545-020B).
2×10^5 cells/well were seeded in plating medium consisting of DMEM+GlutaMAXI+1% NEAA+10% FBS (FetalClone II)+1% Pen/Strep. The medium was changed every 2-3 days.
Test and reference compounds (propranolol and rhodamine123 or vinblastine, all purchased from Sigma) were prepared in Hanks' Balanced Salt Solution containing 25 mM HEPES (pH7.4) and added to either the apical (125 μL) or basolateral (600 μL) chambers of the Transwell plate assembly at a concentration of 10 μM with a final DMSO concentration of 0.25%.
50μM Lucifer Yellow (Sigma) was added to the donor buffer in all wells to assess integrity of the cell layers by monitoring Lucifer Yellow permeation. […]
Lucifer yellow was measured with a Spectramax Gemini XS (Ex 426 nm and Em 538 nm) in a clean 96 well plate containing 150 μL of liquid from basolateral and apical side.
Concentrations of compound in the samples were measured by high performance liquid-chromatography/mass spectroscopy (LC-MS/MS).
The Efflux ratios, as an indication of active efflux from the apical cell surface, were calculated using the ratio of PappB>A/Papp A>B.

T1 sequence (O60674 849-1124): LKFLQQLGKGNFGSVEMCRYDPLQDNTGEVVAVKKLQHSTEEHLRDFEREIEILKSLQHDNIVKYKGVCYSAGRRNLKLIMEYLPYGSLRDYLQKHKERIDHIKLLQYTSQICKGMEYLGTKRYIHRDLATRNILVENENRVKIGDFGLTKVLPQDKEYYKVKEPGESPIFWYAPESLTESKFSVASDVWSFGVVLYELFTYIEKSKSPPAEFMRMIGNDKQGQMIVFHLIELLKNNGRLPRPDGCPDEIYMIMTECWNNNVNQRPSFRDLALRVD
Chain of JAK1 (P23458 866-1154): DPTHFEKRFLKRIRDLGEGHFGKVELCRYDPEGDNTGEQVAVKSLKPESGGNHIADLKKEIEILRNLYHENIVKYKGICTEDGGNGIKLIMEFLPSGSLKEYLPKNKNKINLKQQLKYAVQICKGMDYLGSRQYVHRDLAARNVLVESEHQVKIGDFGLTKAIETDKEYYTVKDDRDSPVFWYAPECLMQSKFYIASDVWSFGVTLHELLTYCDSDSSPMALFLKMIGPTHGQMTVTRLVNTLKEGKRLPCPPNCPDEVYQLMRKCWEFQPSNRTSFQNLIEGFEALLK

Q: Which results are given for `CC1(C)CN(C(=O)c2ccc(-c3cccc4nc(NC(=O)C5CC5)nn34)cc2)C1` [Compound 1, Cyclopropanecarboxylic acid{5-[4-(3,3-dimethyl-azetidine-1-carbonyl)-phenyl]-[1,2,4]triazolo[1,5-a]pyridin-2-yl}-amide]?
A: Ki [1]: 6.9 nM; Ki [2]: 126 nM; Ki [3]: 35 nM; IC50 ([4]; additional data analysis protocol (R2 > 0.8, hill slope < 3)): 10700 nM; IC50 ([4]; human whole blood): 13500 nM; IC50 [5]: 4270 nM; Papp at 1 h, 10 μM ([6]; Caco-2, 10 μM, 1 hour, pH7.4): 7.8 ± 0.8 ×10⁻⁶ cm/s; efflux ratio at 1 h, 10 μM ([6]; Caco-2, Papp B>A / Papp A>B): 6.1 ± 0.6
